According to patent US8754115B2, “Fungicidal pyrazoles” (E I du Pont de Nemours and Company, priority 2010, dated 2014):
Marks after values point to notes of the source that are not given here.

Legend:
Type in all cases: in vivo
[1] = test system: Puccinia recondite f. sp. tritici; experiment: Test E2: preventive spray on wheat seedlings, visual disease rating (wheat leaf rust)
Procedure, shortened: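 Wheat seedlings were inoculated with leaf rust spores one day after a run-off spray of compound at 200 ppm (asterisk: 40 ppm) in 50/50 acetone/water with 250 ppm Trem 014. Incubation: 24 h saturated humidity, 20 °C; then 7 days growth chamber, 20 °C. Disease control scored visually, 0–100% relative to controls.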

[2] = test system: Septoria tritici; experiment: Test D: preventive spray on wheat seedlings, visual disease rating (wheat leaf blotch)
Procedure, shortened: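 Protection was scored visually on a 0–100% disease-control scale versus controls, 19 days after plants were moved to 20 °C following 48 h of 24 °C saturated humidity. Spore inoculation with S. tritici took place one day after a preventive run-off spray, usually at 200 ppm (800 g/ha) and at 40 ppm where asterisked.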

[3] = test system: Alternaria solani; experiment: Test B: preventive spray on tomato seedlings, visual disease rating (tomato early blight)
Procedure, shortened: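 Compounds were suspended at 200 ppm (asterisked values at 40 ppm) in acetone/water with surfactant and sprayed to run-off on tomato seedlings, 200 ppm being equivalent to 800 g/ha. A. solani spores were inoculated the next day, with 48 h at 27 °C in saturated air, then 5 days at 20 °C. Disease control was rated visually, 0–100% relative to controls.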

[4] = test system: Septoria nodorum; experiment: Test C: preventive spray on wheat seedlings, visual disease rating (Septoria glume blotch)
Procedure, shortened: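 Wheat seedlings were sprayed to run-off with 200 ppm suspension (40 ppm where marked; 200 ppm ≈ 800 g/ha) in acetone/water with 250 ppm Trem 014, then inoculated next day with Septoria nodorum spores. Incubation was 48 h saturated at 24 °C, then 6 days at 20 °C; visual rating 0–100% disease control versus controls.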

[5] = test system: Botrytis cinerea; experiment: Test A: preventive spray on tomato seedlings, visual disease rating (tomato Botrytis)
Procedure, shortened: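 Preventive test: Botrytis cinerea spores applied one day after run-off spraying at 200 ppm (≈800 g/ha), or 40 ppm where asterisked. Incubation 48 h at 20 °C in saturated air, then 3 days at 24 °C; disease scored visually from 0 (no control) to 100 (complete control) versus untreated.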

[6] = test system: Puccinia recondite f. sp. tritici; experiment: Test E1: curative spray on wheat seedlings after inoculation, visual disease rating (wheat leaf rust)
Procedure, shortened: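 Seedlings inoculated with rust spores, held 24 h in saturated atmosphere at 20 °C, then 2 days at 20 °C before curative spray to run-off with test suspension (200 ppm ≈ 800 g/ha, or 40 ppm where marked) in acetone/water with surfactant. Visual disease control rating (0–100) after 6 further days at 20 °C.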

[7] = test system: Blumeria graminis f. sp. tritici; experiment: Test F: preventive spray on wheat seedlings, visual disease rating (wheat powdery mildew)
Procedure, shortened: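 Visual ratings (0–100% control relative to controls) taken 8 days after spore-dust inoculation at 20° C. Inoculation followed one day after a protective run-off spray of 200 ppm suspension, equal to 800 g/ha, or 40 ppm where flagged, made in acetone/water with 250 ppm surfactant.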

[8] = no asterisk: standard test suspension, not 40 ppm
[9] = no asterisk: standard test suspension, not 40 ppm, 100 = 100% disease control, 0 = none
[10] = asterisk: 40 ppm test suspension

| Compound | Test E2 rating (% disease control) [1, 8] | Test D rating (% disease control) [2, 8] | Test B rating (% disease control) [3, 8] | Test C rating (% disease control) [4, 8] | Test A rating (% disease control) [5, 9] | Test E1 rating (% disease control) [6, 8] | Test F rating (% disease control) [7, 8] | Test E2 rating (% disease control) [1, 10] | Test D rating (% disease control) [2, 10] | Test B rating (% disease control) [3, 10] | Test C rating (% disease control) [4, 10] | Test A rating (% disease control) [5, 10] | Test E1 rating (% disease control) [6, 10] | Test F rating (% disease control) [7, 10] |
| --- | --- | --- | --- | --- | --- | --- | --- | --- | --- | --- | --- | --- | --- | --- |
| Cc1nn(C)c(-c2c(F)cc(F)cc2F)c1C(=O)c1ccc(F)cc1Cl [compound 59] | 80% | 58% | 0% | 0% | 66% | 0% | 100% |  |  |  |  |  |  |  |
| Cc1nn(C)c(-c2ccc(F)cc2Cl)c1Nc1ccc(F)cc1 [compound 41] | 41% | 98% | 64% | 0% | 100% | 0% | 0% |  |  |  |  |  |  |  |
| Cc1nn(C)c(-c2c(F)cccc2F)c1C(Cl)c1ccc(F)cc1Cl (stereo not drawn) [Compound 84] |  |  |  |  |  |  |  | 100* % | 100* % | 100* % | 99* % | 96* % | 41* % | 100* % |
| Cc1nn(C)c(-c2ccc(F)cc2Cl)c1Nc1ccc(Cl)cc1F [Compound 45] | 97% | 100% | 0% | 0% | 100% | 77% | 99% | 95* % | 100* % | 33* % | 0* % | 98* % | 0* % | 100* % |
| 5-(2,6-difluorophenyl)-α-(4-fluoro-2-methylphenyl)-3-methoxy-1-methyl-1H-pyrazole-4-methanol [Compound 157] | 89% | 100% | 93% | 0% | 100% | 65% | 98% |  |  |  |  |  |  |  |
| Cc1nn(C)c(-c2ccc(C#N)cc2Cl)c1Oc1ccc(F)cc1Cl [compound 36] | 100% | 100% | 0% | 0% | 96% | 18% | 100% |  |  |  |  |  |  |  |
| Cc1nn(C)c(-c2ccc(F)cc2Cl)c1C(O)c1c(F)cc(F)cc1F (stereo not drawn) [compound 19] | 100% | 100% | 100% | 100% | 99% | 100% | 100% |  |  |  |  |  |  |  |
| Cc1nn(C)c(-c2c(F)cccc2F)c1Nc1ccc(F)cc1F [compound 64] | 55% | 48% | 0% | 0% | 99% | 0% | 97% |  |  |  |  |  |  |  |
| Cc1nn(C)c(-c2c(F)cccc2Cl)c1C(O)c1c(Cl)cc(Cl)cc1Cl (stereo not drawn) [compound 55] | 100% | 100% | 97% | 78% | 99% | 99% | 95% |  |  |  |  |  |  |  |
| Cc1nn(C)c(-c2c(F)cc(F)cc2F)c1C(=O)c1ccc(F)cc1F [compound 60] | 55% | 0% | 0% | 0% | 75% | 0% | 99% |  |  |  |  |  |  |  |
| Cc1nn(C)c(-c2c(F)cccc2Cl)c1C(O)c1ccc(F)cc1F (stereo not drawn) [compound 33] | 100% | 100% | 100% | 100% | 100% | 99% | 100% |  |  |  |  |  |  |  |
